Inhibition data for 20 molecules are collected here from US8563551B2, “Method for preventing or treating a disease related to the glucocorticoid receptor” (Santen Pharmaceutical Co., Ltd., priority 2006, dated 2013).

This test concerns the target T1, Recombinant human GR (Homo sapiens, UniProt P04150).
T1 construct: purchased Invitrogen P2816
T1 sequence (P04150 1-777): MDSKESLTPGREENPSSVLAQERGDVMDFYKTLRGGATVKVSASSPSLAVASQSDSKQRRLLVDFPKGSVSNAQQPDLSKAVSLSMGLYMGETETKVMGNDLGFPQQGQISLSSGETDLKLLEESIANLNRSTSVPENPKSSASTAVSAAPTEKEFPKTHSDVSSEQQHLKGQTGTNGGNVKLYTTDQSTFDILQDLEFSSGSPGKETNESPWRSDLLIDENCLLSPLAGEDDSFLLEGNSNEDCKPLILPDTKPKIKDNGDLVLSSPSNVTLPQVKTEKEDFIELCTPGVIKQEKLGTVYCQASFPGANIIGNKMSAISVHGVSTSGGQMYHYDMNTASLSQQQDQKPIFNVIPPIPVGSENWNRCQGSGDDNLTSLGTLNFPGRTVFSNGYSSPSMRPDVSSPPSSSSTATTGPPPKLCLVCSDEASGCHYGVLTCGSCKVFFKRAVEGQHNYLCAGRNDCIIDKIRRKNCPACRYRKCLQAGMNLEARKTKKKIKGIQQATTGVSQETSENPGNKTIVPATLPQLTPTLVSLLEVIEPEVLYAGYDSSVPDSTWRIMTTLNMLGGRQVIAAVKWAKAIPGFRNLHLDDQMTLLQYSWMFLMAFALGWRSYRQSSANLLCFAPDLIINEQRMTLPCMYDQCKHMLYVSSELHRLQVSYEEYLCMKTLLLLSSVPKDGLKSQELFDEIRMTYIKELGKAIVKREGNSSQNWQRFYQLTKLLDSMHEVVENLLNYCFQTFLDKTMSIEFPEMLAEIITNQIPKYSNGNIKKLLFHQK
The experiment in a line: GR competitor assay (receptor competitor assay by fluorescence polarization, Invitrogen kit P2816). The settings on record: 20 μM test compound solution (10 μL per well plus 5 μL 4×GS1 and 5 μL 4×GR); relative to 2 mM dexamethasone positive control; ratios of 100% or more are indicated by 100%; read-out: GR Binding ratio (%). The protocol:
In order to evaluate a binding activity to GR, a receptor competitor assay was carried out by a fluorescence polarization method. In the assay, a GR competitor assay kit (manufactured by Invitrogen, cat No. P2816) was used, and a procedure was carried out according to the protocol attached to the kit. Hereinafter, the specific method will be described.
GR screening buffer: A buffer containing 10 mM potassium phosphate (pH 7.4), 20 mM sodium molybdate (Na2MoO4), 0.1 mM ethylene diamine tetraacetic acid (EDTA), 5 mM dithiothreitol (DTT), 0.1 mM stabilizing peptide and 2% dimethylsulfoxide was prepared.
4×GS1 solution: Fluormone™ GS1, which is a fluorescent glucocorticoid ligand, was diluted with GR screening buffer, whereby a 4 nM solution was prepared.
4×GR solution: Recombinant human GR was diluted with GR screening buffer, whereby a 16 nM solution was prepared.
After a test compound was dissolved in dimethylsulfoxide, the resulting solution was diluted with GR screening buffer, whereby a 20 μM test compound solution was prepared.
1) The test compound solution was added in an amount of 10 μL into each well of a 384-well plate, and then, 4×GS1 solution and 4×GR solution were added in an amount of 5 μL into each well, respectively.
2) The plate was incubated in a dark place at room temperature for 2 to 4 hours.
3) By using a multimode plate reader, Analyst™ HT (manufactured by LJL Biosystems), fluorescence polarization of each well was measured. As the blank, a well containing GR screening buffer in place of the test compound and 4×GS1 solution was used.
4) The same procedure as that in the above 1) to 3) was carried out except that GR screening buffer was used in place of the test compound solution, and the obtained result was taken as the negative control.
5) The same procedure as that in the above 1) to 3) was carried out except that 2 mM dexamethasone was used in place of the test compound solution, and the obtained result was taken as the positive control.
A GR binding ratio (%) was calculated from the following equation. GR binding ratio(%)=100×[1−(fluorescence polarization of test compound solution−fluorescence polarization of positive control solution)/(fluorescence polarization of negative control solution fluorescence polarization of positive control solution)] (Test Results and Discussion)
(In general: Fluorescence polarisation rises when a labelled molecule tumbles more slowly, as on binding a larger partner.)

As to `COc1ccccc1C(=O)Oc1ccc(-c2ccc3c(c2COC(=O)c2ccc(C)cc2)C(C)=CC(C)(C)N3)c(OC)c1` [Compound 1-7, 6-[2-Methoxy-4-(2-methoxybenzoyloxy)phenyl]-5-(4-methylbenzoyloxymethyl)-2,2,4-trimethyl-1,2-dihydroquinoline], the inhibition at 20 µM (stock) is 100%.

Regarding `COC(=O)Oc1ccc(-c2ccc3c(c2COC(=O)c2ccc(C)s2)C(C)=CC(C)(C)N3)c(OC)c1` [Compound 3-1, 6-(2-Methoxy-4-methoxycarbonyloxyphenyl)-5-(5-methylthiophen-2-ylcarbonyloxymethyl)-2,2,4-trimethyl-1,2-dihydroquinoline], the inhibition at 20 µM (stock) was 91%. The figure for `COc1cc(OC(=O)c2ccc(F)cc2)ccc1-c1ccc2c(c1COC(=O)c1ccc(C)s1)C(C)=CC(C)(C)N2` [Compound 1-48, 6-[4-(4-Fluorobenzoyloxy)-2-methoxyphenyl]-5-(5-methylthiophen-2-ylcarbonyloxymethyl)-2,2,4-trimethyl-1,2-dihydroquinoline] is 96%. Turning to `COc1ccc(C(=O)Oc2ccc(-c3ccc4c(c3COC(=O)c3ccc(C)s3)C(C)=CC(C)(C)N4)c(OC)c2)cc1` [Compound 1-22, 6-[2-Methoxy-4-(4-methoxybenzoyloxy)phenyl]-5-(5-methylthiophen-2-ylcarbonyloxymethyl)-2,2,4-trimethyl-1,2-dihydroquinoline], the inhibition at 20 µM (stock) came out at 91%. The figure for `COc1cc(OC(=O)c2cccc(C)c2)ccc1-c1ccc2c(c1COC(=O)c1ccc(C)s1)C(C)=CC(C)(C)N2` [Compound 1-46, 6-[2-Methoxy-4-(3-methylbenzoyloxy)phenyl]-5-(5-methylthiophen-2-ylcarbonyloxymethyl)-2,2,4-trimethyl-1,2-dihydroquinoline] is 99%; for `COc1ccccc1C(=O)Oc1ccc(-c2ccc3c(c2COC(=O)c2ccc(C)s2)C(C)=CC(C)(C)N3)c(OC)c1` [Compound 1-12, 6-[2-Methoxy-4-(2-methoxybenzoyloxy)phenyl]-5-(5-methylthiophen-2-ylcarbonyloxymethyl)-2,2,4-trimethyl-1,2-dihydroquinoline] it is 93%; for `COc1cc(OC(=O)c2ccc(Cl)cc2)ccc1-c1ccc2c(c1COC(=O)c1ccc(C)s1)C(C)=CC(C)(C)N2` [Compound 1-17, 6-[4-(4-Chlorobenzoyloxy)-2-methoxyphenyl]-5-(5-methylthiophen-2-ylcarbonyloxymethyl)-2,2,4-trimethyl-1,2-dihydroquinoline] it is 84%.

In the case of `COc1cc(OC(=O)c2ccco2)ccc1-c1ccc2c(c1COC(=O)c1ccc(Br)s1)C(C)=CC(C)(C)N2` [Compound 1-39, 5-(5-Bromothiophen-2-ylcarbonyloxymethyl)-6-[4-(furan-2-ylcarbonyloxy)-2-methoxyphenyl]-2,2,4-trimethyl-1,2-dihydroquinoline], the inhibition at 20 µM (stock) is 100%. In the case of `COC(=O)c1cccc(C(=O)Oc2ccc(-c3ccc4c(c3COC(=O)c3ccc(C)s3)C(C)=CC(C)(C)N4)c(OC)c2)c1` [Compound 1-26, 6-[2-Methoxy-4-(3-methoxycarbonylbenzoyloxy)phenyl]-5-(5-methylthiophen-2-ylcarbonyloxymethyl)-2,2,4-trimethyl-1,2-dihydroquinoline], the inhibition at 20 µM (stock) came to 94%. With `COc1cc(OC(=O)c2cccnc2)ccc1-c1ccc2c(c1COC(=O)c1ccc(C)s1)C(C)=CC(C)(C)N2` [Compound 1-13, 6-[2-Methoxy-4-(pyridin-3-ylcarbonyloxy)phenyl]-5-(5-methylthiophen-2-ylcarbonyloxymethyl)-2,2,4-trimethyl-1,2-dihydroquinoline], the inhibition at 20 µM (stock) amounted to 96%. The result for `COc1cc(OC(=O)c2ccco2)ccc1-c1ccc2c(c1COC(=O)c1ccc(C)cc1)C(C)=CC(C)(C)N2` [Compound 1-10, 6-[4-(Furan-2-ylcarbonyloxy)-2-methoxyphenyl]-5-(4-methylbenzoyloxymethyl)-2,2,4-trimethyl-1,2-dihydroquinoline] reads 100%. For `COc1cc(OC(=O)c2cccc(Cl)c2)ccc1-c1ccc2c(c1COC(=O)c1ccc(C)s1)C(C)=CC(C)(C)N2` [Compound 1-16, 6-[4-(3-Chlorobenzoyloxy)-2-methoxyphenyl]-5-(5-methylthiophen-2-ylcarbonyloxymethyl)-2,2,4-trimethyl-1,2-dihydroquinoline], the inhibition at 20 µM (stock) is 85%.

With `COc1cc(OC(=O)c2ccccc2[N+](=O)[O-])ccc1-c1ccc2c(c1COC(=O)c1ccc(C)s1)C(C)=CC(C)(C)N2` [Compound 1-49, 6-[2-Methoxy-4-(2-nitrobenzoyloxy)phenyl]-5-(5-methylthiophen-2-ylcarbonyloxymethyl)-2,2,4-trimethyl-1,2-dihydroquinoline], the inhibition at 20 µM (stock) came out at 98%.

In the case of `COc1cc(OC(=O)C(C)C)ccc1-c1ccc2c(c1COC(=O)c1ccc(C)s1)C(C)=CC(C)(C)N2` [Compound 1-43, 6-(4-Isopropylcarbonyloxy-2-methoxyphenyl)-5-(5-methylthiophen-2-ylcarbonyloxymethyl)-2,2,4-trimethyl-1,2-dihydroquinoline], the inhibition at 20 µM (stock) amounted to 100%.

For `COc1cc(OC(=O)c2sccc2Cl)ccc1-c1ccc2c(c1COC(=O)c1ccc(C)s1)C(C)=CC(C)(C)N2` [Compound 1-31, 6-[4-(3-Chlorothiophen-2-ylcarbonyloxy)-2-methoxyphenyl]-5-(5-methylthiophen-2-ylcarbonyloxymethyl)-2,2,4-trimethyl-1,2-dihydroquinoline], the inhibition at 20 µM (stock) worked out at 88%. As for `COc1cc(OC(=O)c2cccnc2)ccc1-c1ccc2c(c1COC(=O)c1ccc(Br)s1)C(C)=CC(C)(C)N2` [Compound 1-37, 5-(5-Bromothiophen-2-ylcarbonyloxymethyl)-6-[2-methoxy-4-(pyridin-3-ylcarbonyloxy)phenyl]-2,2,4-trimethyl-1,2-dihydroquinoline], the inhibition at 20 µM (stock) is 100%.

With `COc1cc(OS(=O)(=O)C2CC2)ccc1-c1ccc2c(c1COC(=O)c1ccc(C)s1)C(C)=CC(C)(C)N2` [Compound 2-9, 6-(4-Cyclopropylsulfonyloxy-2-methoxyphenyl)-5-(5-methylthiophen-2-ylcarbonyloxymethyl)-2,2,4-trimethyl-1,2-dihydroquinoline], the inhibition at 20 µM (stock) came to 100%. The result for `COc1cc(OC(=O)c2cccc(C(C)=O)c2)ccc1-c1ccc2c(c1COC(=O)c1ccc(C)s1)C(C)=CC(C)(C)N2` [Compound 1-27, 6-[4-(3-Acetylbenzoyloxy)-2-methoxyphenyl]-5-(5-methylthiophen-2-ylcarbonyloxymethyl)-2,2,4-trimethyl-1,2-dihydroquinoline] reads 89%; that for `CCS(=O)(=O)Oc1ccc(-c2ccc3c(c2COC(=O)c2ccc(C)s2)C(C)=CC(C)(C)N3)c(OC)c1` [Compound 2-7, 6-(4-Ethylsulfonyloxy-2-methoxyphenyl)-5-(5-methylthiophen-2-ylcarbonyloxymethyl)-2,2,4-trimethyl-1,2-dihydroquinoline], 100%; that for `COc1cc(OC(=O)c2cccs2)ccc1-c1ccc2c(c1COC(=O)c1ccc(C)s1)C(C)=CC(C)(C)N2` [Compound 1-29, 6-[2-Methoxy-4-(thiophen-2-ylcarbonyloxy)phenyl]-5-(5-methylthiophen-2-ylcarbonyloxymethyl)-2,2,4-trimethyl-1,2-dihydroquinoline], 96%.
